From US20040034022A1, “Polymorphic forms/hydrates of n-[4-(3-chloro-4-fluorophenylamino)-7-(3-morpholin-4-ylpropoxy)-quinazolin-6-yl]-acrylamide dihydrochloride” (priority 2000, published 2004)
Structures can show the parent of a compound that is named as a salt. Blank lines part the entries; values can stand above or below the compound they belong to.

Experiment: Temperature stress experiments: thermal stability of the solid forms, purity by HPLC
Format: physicochemical
Conditions: for HPLC Purity Start: solid form before temperature stress; for HPLC Purity: solid
Excerpt: Temperature Stress Experiments For the investigation of the thermal stability, the solid forms A, B and M are heated in open test tubes (l: 110 mm, d: 5 mm) or in test tubes closed by means of a glass stamp in an oil bath at temperatures and for a period of time as given in the Table. Subsequently, the purity of the remaining products is investigated by means of HPLC methods (column: LunaRP18 (25×0.46 cm); mobile phase: acetonitrile:methanol: 0.02M aq. ammonium acetate:triethylamine (55:5:40:0.05). (s): test tube with glass stamp

- HPLC Purity Start (listed as A): 99.28 rel %
- HPLC Purity (16 hr, 100° C., then 8 hr, 150° C., (s): test tube with glass stamp, listed as A): 23.45 (s) rel %
- HPLC Purity (16 hr, 100° C., then 8 hr, 150° C., open test tube, listed as A): 25.28 rel %
- HPLC Purity (7 d, 80° C., (s): test tube with glass stamp, listed as A): 99.02 (s) rel %
- HPLC Purity (7 d, 80° C., open test tube, listed as A): 97.51 rel %
SMILES: C=CC(=O)Nc1cc2c(Nc3ccc(F)c(Cl)c3)ncnc2cc1OCCCN1CCOCC1 [Form A, N-[4-(3-chloro-4-fluorophenylamino)-7-(3-morpholin-4-ylpropoxy)-quinazolin-6-yl]-acrylamide Dihydrochloride Form A]

- HPLC Purity Start (listed as B): 99.77 rel %
- HPLC Purity (16 hr, 100° C., then 8 hr, 150° C., (s): test tube with glass stamp, listed as B): 75.28 (s) rel %
- HPLC Purity (16 hr, 100° C., then 8 hr, 150° C., open test tube, listed as B): 75.32 rel %
- HPLC Purity (7 d, 80° C., (s): test tube with glass stamp, listed as B): 84.40 (s) rel %
- HPLC Purity (7 d, 80° C., open test tube, listed as B): 89.39 rel %
SMILES: C=CC(=O)Nc1cc2c(Nc3ccc(F)c(Cl)c3)ncnc2cc1OCCCN1CCOCC1 [Form B, N-[4-(3-chloro-4-fluorophenylamino)-7-(3-morpholin-4-ylpropoxy)-quinazolin-6-yl]-acrylamide Dihydrochloride Form B]

- stability towards the heating of the solid substance (heating at 80° C. or 150° C., in comparison to the forms A or B): more stable form
- HPLC Purity Start (listed as M): 99.49 rel %
- HPLC Purity (16 hr, 100° C., then 8 hr, 150° C., (s): test tube with glass stamp, listed as M): 99.43 (s) rel %
- HPLC Purity (16 hr, 100° C., then 8 hr, 150° C., open test tube, listed as M): 99.43 rel %
- HPLC Purity (8 d, 80° C., (s): test tube with glass stamp): 99.61 (s) rel %
- HPLC Purity (8 d, 80° C., open test tube): 99.62 rel %
SMILES: C=CC(=O)Nc1cc2c(Nc3ccc(F)c(Cl)c3)ncnc2cc1OCCCN1CCOCC1 [Form M, N-[4-(3-chloro-4-fluorophenylamino)-7-(3-morpholin-4-ylpropoxy)-quinazolin-6-yl]-acrylamide Dihydrochloride Form M]
